Measurements reported in patent US6423729B1, “Therapeutic or prophylactic agent for glomerulopathy” (Shionogi & Co., Ltd., priority 1997, dated 2002).

How the values were obtained:
MMP-9 = target: T1, MMP-9 (Homo sapiens, UniProt P14780); assay: Assay for inhibitory activity against MMP-9; type: biochemical
T1 construct: made in house; host or cells: HT1080 human fibrosarcoma cells; endogenous protein secreted after TPA treatment and purified from conditioned medium
Protocol: (§1) Assay for Inhibitory Activities of MMP-9 and MMP-2
(§2) The enzymatic activity was analyzed on the method described by Knight, C. G., et al. (C. Graham Knight., Frances Willenbrock and Gillian Murphy: A novel coumarin-labelled peptide for sensitive continuous assays of the matrix metalloproteinases. FEBS Lett., 296 (1992) 263-266).
MMP-9 was purified by using a combination of procedures described in previous reports as follows. Yasunori Okada, Yukio Gonoji, Katsumi Naka, Katsuro Tomita, Isao Nakanishi, Kazushi Iwata and Taro Hayakawa: Matrix metalloproteinase 9 (92-kDa gelatinase/type IV collagenase) from HT1080 human fibrosarcoma cells. Purification and activation of the precursor and enzymic properties. J. Biol. Chem., 267 (1992) 21712-21719. Yasunori Okada, Tatsuhisa Morodomi, Jan J, Enghild, Ko Suzuki, Atsushi Yasui, Isao Nakanishi, Guy Salvesen and Hideaki Nagase: Matrix metalloproteinase 2 from human rheumatoid synovial fibroblasts. Purification and activation of the precursor and enzymic properties. Eur. J. Biochem. 194 (1990) 721-730. Robin V Ward, Rosalind M Hembry, John J Reynolds and Gillian Murphy: The purification of tissue inhibitor of metalloproteinase-2 from its 72 kDa progelatinase complex. Biochem. J. 278 (1991) 179-187.
Briefly, human fibrosarcoma ATCC HT1080 cell line was cultured to confluent in Dulbecco's Modified Medium (DMEM) containing 10% fetal-calf serum at 37° C. for 48 hours. Subsequently, the medium of confluent culture was changed to serum-free DMEM medium. To obtain MMP-9, Phorbol-12-myristate-13-acetate (TPA) must be added to this serum-free DMEM medium at a concentration of 50 ng/ml. The TPA treated medium was centrifuged at 3000 rpm for 15 min and the supernatant was concentrated to 450 ml by a Toyo-Roshi UP-20 apparatus with an ultrafiltration membrane. Then, proMMP-9 in this concentrated solution was purified by using columns of Gelatin-Sepharose and Concanavalin A-Sepharose. The pool containing proMMP-9 was dialyzed, concentrated (Toyo-Roshi UP-20) and applied to columns of Sephacryl S-200 and Green A matrix for the separation from TIMPs. The obtained proMMP-9 fraction was activated by TPCK-Trypsin (final conc. […] reaction mix.) for the assay.
(§3) MOCAc-Pro-Leu-Gly-Leu-A2pr(Dnp)-Ala-Arg-NH2 as a substrate was purchased from Petide Institute(Osaka pref., Japan). This substrate was dissolved in DMSO at a concentration of 1 mM.
(§4) Reaction buffer consists of 50 mM Tris-HCl buffer (pH 7.5) containing 10 mM CaCl2, 0.3 M NaCl, 0.005% Brij35 and 0.01% NaN3.
Assay Method of Inhibitory Activity Against MMP-9:
(§5) 1.0 μl of a tested compound in DMSO is added to 48.0 μl of a reaction buffer containing 0.08 μl of an enzyme solution. After standing for 60 minutes at room temperature, the reaction was started by adding 1.0 μl of a substrate solution. After incubation for 60 minutes at room temperature, 100 μl of 3% (v/v) AcOH for reaction stopping and measured a fluorescence with excitation and emission at 320 nm and 405 nm, respectively (Spectrophotofluorometer; Fluoroscan Ascent (Labsystem)).
(§6) The measurement of the inhibitory activities (IC50) was carried out in a following four methods;
(§7) A) Reaction with substrate, enzyme and inhibitor
(§8) B) Reaction with substrate and inhibitor, without enzyme
(§9) C) Reaction with substrate and enzyme, without inhibitor
(§10) D) Reaction with substrate only
(§11) IC50 values were calculated by using a following formula and each fluorescence values of above four methods (A to D).
(§12) % inhibition={1−(A−B)/(C−D)}×100
(§13) IC50 means the concentration required to inhibit 50% of the enzyme activity.

MMP-2 = target: T2, MMP-2 (Homo sapiens, UniProt P08253); assay: Assay for inhibitory activity against MMP-2; type: biochemical
T2 construct: purchased Yagai (Yamagata pref., Japan)
T2 sequence (P08253 110-660): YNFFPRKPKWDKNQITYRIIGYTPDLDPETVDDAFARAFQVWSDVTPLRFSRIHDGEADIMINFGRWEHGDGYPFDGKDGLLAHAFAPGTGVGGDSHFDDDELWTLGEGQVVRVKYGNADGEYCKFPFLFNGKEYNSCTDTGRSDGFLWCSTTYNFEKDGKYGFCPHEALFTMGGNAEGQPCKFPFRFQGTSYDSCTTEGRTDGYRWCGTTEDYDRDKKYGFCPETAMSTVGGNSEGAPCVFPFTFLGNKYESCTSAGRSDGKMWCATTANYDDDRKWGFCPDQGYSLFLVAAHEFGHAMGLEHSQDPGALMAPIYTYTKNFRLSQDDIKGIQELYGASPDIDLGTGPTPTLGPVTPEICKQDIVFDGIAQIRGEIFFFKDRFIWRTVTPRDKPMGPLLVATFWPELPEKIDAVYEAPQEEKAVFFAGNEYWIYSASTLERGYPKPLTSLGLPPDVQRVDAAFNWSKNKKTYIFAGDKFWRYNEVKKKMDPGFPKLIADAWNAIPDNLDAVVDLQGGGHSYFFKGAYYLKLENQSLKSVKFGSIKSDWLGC
Protocol: as §1, §2
MMP-2 was purchased from Yagai (Yamagata pref., Japan).
as §3, §4
Assay Method of Inhibitory Activity Against MMP-2:
as §5, with “0.05” for “0.08”
as §6, §7, §8, §9, §10, §11, §12, §13

[1] = system: E30 monoclonal antibody-induced glomerulonephritis in Slc-Wistar rats; assay: Urinary protein excretion in E30 monoclonal antibody-induced glomerulonephritis rats; type: in vivo, rat; conditions: urinary protein excretion on day 2 after E30 injection, compound-treated vs vehicle-treated group, oral, 100 mg once a day, first dose 2 hours before E30
Protocol: Five to eight weeks old male Slc-Wistar rats were used in the experiment.
In order to induce glomerulonephritis, E30 of 20 to 500 μg, preferably 50 to 200 μg, is intravenously injected to rats of five to eight weeks old. Test compounds of 0.1 to 500 mg, preferably 1 to 200 mg, are suspended with 3 to 10%, preferably 4 to 6%, gum arabic solution and the like, and are orally given 1 to 5 hours, preferably 1.5 to 3 hours, prior to E30 injection. Constant amount of test compounds are then consecutively given 1 to 3 times a day. Evaluation of test compounds are determined by the amount of urinary protein excretion 2 days after E30 injection when proteinuria reaches to the maximum level.
Determination of the amount of urinary protein excretion is performed by the collection of 24-hour urine samples with stainless metabolic cages followed by the measurement of the concentration of urinary protein. Blood samples obtained at the follow-up period are processed for the determination of blood urea nitrogen and plasma creatinine, which indicate renal function. As a marker of damaged renal tubules, urinary amounts of N-acetyl-D-glycosaminidase excretion is measured. Furthermore, to study the inhibitory effects of compounds on mesangial proliferation following E30 injection, the number of PCNA (proliferating cell nuclear antigen) positive cells per single glomerulus is counted. Morphological changes are observed with light and electron microscopy.
5-week-old male Slc-Wistar rats were reared under the conditions of room temperature of 25° C., 40-60% humidity and 12 hour cycles of light and darkness and fed on solid chow (CA-1, Clea Japan) and tap water ad libitum. After one week's preliminary rearing, each rat was housed in a stainless metabolic cage for acclimation for one week, and was used for experiment at 7 weeks of old (body weight: 150-180 g). E30 monoclonal antibody (J.J.N., vol. 36, p106, 1994) was diluted with saline at 100 μg/0.4 ml and was administered from tail vein at the volume of 0.4 ml/body. Compound (2) was suspended with 5% gum arabic solution and was given at the dose of 100 mg 2 hours before E30 injection. Subsequently, compound (2) of 100 mg was orally administered once a day from the next day. The rats were housed in stainless metabolic cages just after the administration of test compound, and then 24-hour urine samples were collected. After measuring the volume, the urine was centrifuged at 3000 rpm for 10 min at room temperature. […] Urinary protein was determined by pyrogallole red method (Micro TP-test Wako, Wako Zyunyaku). The amount of urinary protein excretion on day 2 in compound-treated group was compared with that in vehicle-treated one, and inhibitory ratio of urinary protein excretion was calculated. […]

T1 sequence (P14780 107-707 limits assumed): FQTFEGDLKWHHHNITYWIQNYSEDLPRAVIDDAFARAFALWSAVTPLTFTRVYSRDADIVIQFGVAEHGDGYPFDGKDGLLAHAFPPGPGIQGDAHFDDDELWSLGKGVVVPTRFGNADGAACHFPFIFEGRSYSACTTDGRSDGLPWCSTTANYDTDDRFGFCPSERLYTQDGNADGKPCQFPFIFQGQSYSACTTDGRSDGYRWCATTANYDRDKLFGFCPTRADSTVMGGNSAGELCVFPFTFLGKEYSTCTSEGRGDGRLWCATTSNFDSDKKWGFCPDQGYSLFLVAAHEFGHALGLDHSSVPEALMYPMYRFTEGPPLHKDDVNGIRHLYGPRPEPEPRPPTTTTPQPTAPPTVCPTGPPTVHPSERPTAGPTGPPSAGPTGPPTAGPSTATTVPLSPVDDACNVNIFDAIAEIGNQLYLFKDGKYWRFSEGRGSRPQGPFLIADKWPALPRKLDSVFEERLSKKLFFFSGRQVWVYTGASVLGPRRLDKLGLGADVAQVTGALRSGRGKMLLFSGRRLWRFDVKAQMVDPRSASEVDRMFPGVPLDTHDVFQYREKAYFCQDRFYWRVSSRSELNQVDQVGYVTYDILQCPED

Row | Compound | IC50 (MMP-9) | melting point | IC50 (MMP-2) | Inhibitory rate (%) of urinary protein excretion [1]
1 | Cc1ccc(C#Cc2ccc(S(=O)(=O)N[C@H](Cc3ccccc3)C(=O)O)s2)s1 [Compound 87] | 0.01 µM | 158 to 160 °C | 0.00369 µM | –
2 | Cc1ccc(-n2nnc(-c3ccc(S(=O)(=O)N[C@H](Cc4ccccc4)C(=O)O)s3)n2)cc1 [Compound 95] | 0.019 µM | 166 to 169 °C | 0.0107 µM | 21%
3 | CC(C)[C@@H](NS(=O)(=O)c1ccc(-c2nnn(-c3ccc(F)cc3)n2)s1)C(=O)O [Compound 97] | 0.136 µM | 184 to 186 °C | 0.0156 µM | –
4 | CC(C)[C@@H](NS(=O)(=O)c1ccc(-c2ncc(-c3ccccc3)o2)s1)C(=O)O [Compound 98] | 0.787 µM | 220 to 223 °C | 0.0953 µM | –
5 | Cc1ccc(-c2ccc(-c3ccc(S(=O)(=O)N[C@@H](C(=O)O)C(C)C)cc3)s2)cc1 [Compound 103] | 0.0278 µM | – | 0.00612 µM | –
6 | O=C(O)[C@@H](Cc1ccccc1)NS(=O)(=O)c1ccc(-n2nnc(-c3ccc(F)cc3)n2)cc1 [Compound 105] | 0.304 µM | 190 to 192 °C | 0.0414 µM | –
7 | CCc1ccc(-c2nnn(-c3ccc(S(=O)(=O)N[C@@H](Cc4ccccc4)C(=O)O)cc3)n2)cc1 [Compound 110] | 0.0947 µM | 188 to 190 °C | 0.0257 µM | –
8 | O=C(O)[C@@H](Cc1c[nH]c2ccccc12)NS(=O)(=O)c1ccc(-n2nnc(-c3ccc(F)cc3)n2)cc1 [Compound 111] | 0.104 µM | 113 to 115 °C | 0.0107 µM | –
9 | O=C(O)[C@@H](Cc1ccccc1)NS(=O)(=O)c1ccc(-n2nnc(-c3ccccc3)n2)cc1 [Compound 115] | 4.61 µM | 191 to 192 °C | 0.181 µM | –

The next lines start with results.

Row | IC50 (MMP-9) | melting point | IC50 (MMP-2) | Compound | Inhibitory rate (%) of urinary protein excretion [1]
10 | 0.0362 µM | 178 to 179 °C | 0.0015 µM | Cc1ccc(-n2nnc(-c3ccc(S(=O)(=O)N[C@@H](C(=O)O)C(C)C)s3)n2)cc1 [Compound 96] | –
11 | 0.0187 µM | 198 to 200 °C | 0.00202 µM | CC(C)[C@@H](NS(=O)(=O)c1ccc(-n2nnc(-c3ccc(C(F)(F)F)cc3)n2)cc1)C(=O)O [Compound 104] | 27%
12 | 0.104 µM | 204 to 205 °C | 0.0283 µM | CC(C)[C@@H](NS(=O)(=O)c1ccc(-n2nnc(-c3ccc(F)cc3)n2)cc1)C(=O)O [Compound 106] | –
13 | 0.00825 µM | 186 to 187 °C | 0.00351 µM | CCc1ccc(-c2nnn(-c3ccc(S(=O)(=O)N[C@@H](C(=O)O)C(C)C)cc3)n2)cc1 [Compound 107] | –
14 | 0.126 µM | 179 to 181 °C | 0.0284 µM | CCc1ccc(-c2nnn(-c3ccc(S(=O)(=O)N[C@H](C(=O)O)C(C)C)cc3)n2)cc1 [Compound 112] | –
15 | 0.0718 µM | 153 to 154 °C | 0.0057 µM | CCc1ccc(-c2nnn(-c3ccc(S(=O)(=O)N[C@H](CC(C)C)C(=O)O)cc3)n2)cc1 [Compound 113] | –
16 | 0.031 µM | 155 to 157 °C | 0.00262 µM | CCc1ccc(-c2nnn(-c3ccc(S(=O)(=O)N[C@H](C)C(=O)O)cc3)n2)cc1 [Compound 117] | –
17 | 0.0616 µM | 187 to 189 °C | 0.00216 µM | CCOc1ccc(-c2nnn(-c3ccc(S(=O)(=O)N[C@@H](C(=O)O)C(C)C)cc3)n2)cc1 [Compound 118] | –
18 | 0.0455 µM | 185 to 188 °C | 0.00169 µM | CC(C)[C@@H](NS(=O)(=O)c1ccc(-n2nnc(-c3ccc(N(C)C)cc3)n2)cc1)C(=O)O [Compound 119] | –
19 | 0.00582 µM | 194 to 196 °C | 0.000919 µM | CSc1ccc(-c2nnn(-c3ccc(S(=O)(=O)N[C@@H](C(=O)O)C(C)C)cc3)n2)cc1 [Compound 120] | –
20 | 0.148 µM | 191 to 193 °C | 0.000561 µM | CCCCc1ccc(-c2nnn(-c3ccc(S(=O)(=O)N[C@@H](C(=O)O)C(C)C)cc3)n2)cc1 [Compound 121] | –
